Measurements reported in patent publication US20100204182A1, “ECTONUCLEOTIDASE INHIBITORS” (RHEINISCHE FRIEDRICH-WILHELMS-UNIVERSITAT BONN, priority 2006, published 2010).
Where two headings read alike, the source gives them in different places.

What was measured:
human NTPDase3 = biological target: T1, human NTPDase3 (Homo sapiens, UniProt O75355); assay: NTPDase inhibition assay by capillary electrophoresis (CE), NTPDase3; type: biochemical; settings: ATP 320 μM; for inhibition at 1000 µM: 1 mM compound; for Ki: CE method, Km 75 μM, read-out: NTPDase3 Ki [μM] ± SEM
T1 sequence (O75355 1-529): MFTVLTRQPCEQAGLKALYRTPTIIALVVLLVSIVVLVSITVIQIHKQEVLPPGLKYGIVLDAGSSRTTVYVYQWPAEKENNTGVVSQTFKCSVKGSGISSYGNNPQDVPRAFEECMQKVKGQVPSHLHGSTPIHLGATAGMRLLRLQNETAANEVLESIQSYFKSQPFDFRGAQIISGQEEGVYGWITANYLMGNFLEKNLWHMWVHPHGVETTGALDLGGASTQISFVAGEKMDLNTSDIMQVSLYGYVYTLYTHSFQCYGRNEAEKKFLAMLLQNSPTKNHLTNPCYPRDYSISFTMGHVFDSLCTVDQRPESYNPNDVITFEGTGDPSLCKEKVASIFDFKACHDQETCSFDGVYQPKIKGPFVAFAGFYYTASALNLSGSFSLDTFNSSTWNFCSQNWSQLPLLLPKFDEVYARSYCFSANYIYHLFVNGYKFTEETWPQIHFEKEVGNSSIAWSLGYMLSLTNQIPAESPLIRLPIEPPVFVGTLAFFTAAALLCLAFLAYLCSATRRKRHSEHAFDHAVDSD
Protocol: (§1) The applied enzyme inhibition assay has been described (Iqbal J, Vollmayer P, Braun N, Zimmermann H, Müller C E. A capillary electrophoresis method for the characterization of ecto-nucleoside triphosphate diphosphohydrolases (NTPDases) and the analysis of inhibitors by in-capillary enzymatic microreaction. Purinergic Signalling 2005, 1, 349-358).
(§2) A. CE instrumentation: All experiments were carried out using a P/ACE MDQ capillary electrophoresis system (Beckman Instruments, Fullerton, Calif., USA) equipped with a UV detection system coupled with a diode-array detector (DAD). Data collection and peak area analysis were performed by the P/ACE MDQ software 32 KARAT obtained from Beckman Coulter. The capillary temperature was kept constant at 25° C. The temperature of the sample storing unit was also adjusted to 25° C. The electrophoretic separations were carried out using an eCAP polyacrylamide-coated fused-silica capillary [(30 cm (20 cm effective length)×50 μm internal diameter (I.D.)×360 μm outside diameter (O.D.), obtained from CS-Chromatographie (Langerwehe, Germany)]. The separation was performed using an applied current of −60 μA and a data acquisition rate of 8 Hz. Analytes were detected using direct UV absorbance at 210 nm. The capillary was conditioned by rinsing with water for 2 min and subsequently with buffer (phosphate 50 mM, pH 6.5) for 1 min. Sample injections were made at the cathodic side of the capillary.
(§3) B. NTPDase inhibition assay by capillary electrophoresis: Enzyme inhibition assays were carried out at 37° C. in a final volume of 100 μl. The reaction mixture contained 320 μM of ATP (substrate) in reaction buffer. The reaction buffer contained 140 mM NaCl, 5 mM KCl, 1 mM MgCl2, 2 mM CaCl2, and 10 mM Hepes, pH 7.4.
(§4) Different concentrations of inhibitors dissolved in DMSO or water (10 μl) were added and the reaction was initiated by the addition of 10 μl of the appropriately diluted recombinant or native human or rat NTPDase enzyme. […] The mixture (final volume 100 μl) was incubated for 15 min and terminated by heating at 99° C. for 4 min. Aliquots of the reaction mixture (50 μl) were then transferred to mini-CE vials and injected into the CE instrument under the conditions described above. 20 μM of UMP was used as internal standard. Inhibition of NTPDase was tested over a range of 6 to 8 concentrations of test compound spanning 3 orders of magnitude to determine K1 values. Each analysis was repeated two times (in triplicates) in two separate experiments. The Cheng-Prusoff equation was used to calculate the K1 values from the IC50 values, determined by the non-linear curve fitting program PRISM® 3.0 (GraphPad, San Diego, Calif., USA). In table 1K, values of selected compounds as inhibitors of human NTPDases are given.

rP2Y6 = rP2Y6 (Rattus norvegicus, UniProt Q63371); assay: Inhibition of UDP binding at rP2Y6; settings: read-out: rP2Y6 % inhibition of UDP binding at 100 μM, n = 3, mean ± SEM
Chain of rP2Y6 (Q63371 whole entry): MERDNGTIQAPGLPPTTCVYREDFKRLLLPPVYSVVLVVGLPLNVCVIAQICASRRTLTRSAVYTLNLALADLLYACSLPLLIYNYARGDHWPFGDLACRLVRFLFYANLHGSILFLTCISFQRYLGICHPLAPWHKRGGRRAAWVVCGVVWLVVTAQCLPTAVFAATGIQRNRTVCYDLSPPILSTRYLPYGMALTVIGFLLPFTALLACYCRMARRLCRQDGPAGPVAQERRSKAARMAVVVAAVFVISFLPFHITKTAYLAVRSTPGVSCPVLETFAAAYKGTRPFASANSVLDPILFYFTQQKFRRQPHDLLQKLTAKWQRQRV

human NTPDase1 = biological target: T2, human NTPDase1 (Homo sapiens, UniProt P49961); assay: NTPDase inhibition assay by capillary electrophoresis (CE), NTPDase1; type: biochemical; settings: ATP 320 μM; for Ki: CE method, Km 17 μM, read-out: NTPDase1 Ki [μM] ± SEM; for inhibition at 1000 µM: 1 mM compound
T2 sequence (P49961 1-510): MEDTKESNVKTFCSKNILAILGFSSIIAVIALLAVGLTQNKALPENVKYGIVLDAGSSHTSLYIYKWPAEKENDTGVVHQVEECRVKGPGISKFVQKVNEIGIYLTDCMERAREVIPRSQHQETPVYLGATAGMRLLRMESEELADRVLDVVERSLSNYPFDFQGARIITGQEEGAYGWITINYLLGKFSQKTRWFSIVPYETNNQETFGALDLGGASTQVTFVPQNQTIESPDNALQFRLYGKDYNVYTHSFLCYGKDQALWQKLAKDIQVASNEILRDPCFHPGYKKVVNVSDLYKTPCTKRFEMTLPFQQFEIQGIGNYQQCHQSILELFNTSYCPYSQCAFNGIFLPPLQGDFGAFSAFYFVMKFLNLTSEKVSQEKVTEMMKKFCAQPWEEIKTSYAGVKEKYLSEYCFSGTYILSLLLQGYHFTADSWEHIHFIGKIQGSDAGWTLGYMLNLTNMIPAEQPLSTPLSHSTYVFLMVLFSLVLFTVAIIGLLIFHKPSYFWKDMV
Protocol: as §1, §2, §3, §4

human NTPDase8 = biological target: T3, human NTPDase8 (Homo sapiens, UniProt Q5MY95); assay: NTPDase inhibition assay by capillary electrophoresis (CE), NTPDase8; type: biochemical; settings: for Ki: read-out: NTPDase8 Ki [μM] ± SEM; for inhibition at 1000 µM: 1 mM compound
T3 sequence (Q5MY95 1-495): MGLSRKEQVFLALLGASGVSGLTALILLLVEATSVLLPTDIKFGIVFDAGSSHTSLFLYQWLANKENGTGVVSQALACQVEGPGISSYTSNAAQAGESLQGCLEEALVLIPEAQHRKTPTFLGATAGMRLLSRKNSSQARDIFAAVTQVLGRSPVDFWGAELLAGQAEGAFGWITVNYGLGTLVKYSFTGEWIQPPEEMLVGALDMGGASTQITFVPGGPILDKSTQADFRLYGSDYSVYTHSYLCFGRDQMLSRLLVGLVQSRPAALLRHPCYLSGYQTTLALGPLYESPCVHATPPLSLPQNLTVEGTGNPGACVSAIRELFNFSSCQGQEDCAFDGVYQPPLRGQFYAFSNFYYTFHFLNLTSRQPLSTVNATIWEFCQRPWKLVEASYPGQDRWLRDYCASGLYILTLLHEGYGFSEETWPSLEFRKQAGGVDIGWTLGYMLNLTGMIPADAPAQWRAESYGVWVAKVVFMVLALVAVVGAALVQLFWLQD
Protocol: as §1, §2, §3, §4

hP2Y12 = hP2Y12 (Homo sapiens, UniProt Q9H244); assay: Inhibition of [3H]PSB-0413 binding at hP2Y12; settings: mean ± SEM, read-out: hP2Y12 % Inhibition of [^3H]PSB-0413 Binding at 10 μM, n = 3
Chain of hP2Y12 (Q9H244 whole entry): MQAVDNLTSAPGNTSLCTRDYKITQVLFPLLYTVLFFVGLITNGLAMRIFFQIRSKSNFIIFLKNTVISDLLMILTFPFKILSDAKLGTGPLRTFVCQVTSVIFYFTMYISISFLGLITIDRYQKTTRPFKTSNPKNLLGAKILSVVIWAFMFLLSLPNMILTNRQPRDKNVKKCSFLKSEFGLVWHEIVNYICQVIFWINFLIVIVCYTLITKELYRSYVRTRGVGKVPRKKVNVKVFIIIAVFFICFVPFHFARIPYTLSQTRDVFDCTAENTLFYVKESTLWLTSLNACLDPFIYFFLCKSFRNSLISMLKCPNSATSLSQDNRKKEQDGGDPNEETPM
Protocol: In table 2 inhibition data of selected examples at human P2Y receptor subtypes were collected. It can be seen that no compound was identified that inhibited P2Y receptors at high concentrations of 100 μM and 10 μM, respectively.

human NTPDase2 = biological target: T4, human NTPDase2 (Homo sapiens, UniProt Q9Y5L3); assay: NTPDase inhibition assay by capillary electrophoresis (CE), NTPDase2; type: biochemical; settings: human NTPDase2; CE method; ATP 320 μM; Km 70 μM; read-out: NTPDase2 Ki [μM] ± SEM
T4 sequence (Q9Y5L3 1-495): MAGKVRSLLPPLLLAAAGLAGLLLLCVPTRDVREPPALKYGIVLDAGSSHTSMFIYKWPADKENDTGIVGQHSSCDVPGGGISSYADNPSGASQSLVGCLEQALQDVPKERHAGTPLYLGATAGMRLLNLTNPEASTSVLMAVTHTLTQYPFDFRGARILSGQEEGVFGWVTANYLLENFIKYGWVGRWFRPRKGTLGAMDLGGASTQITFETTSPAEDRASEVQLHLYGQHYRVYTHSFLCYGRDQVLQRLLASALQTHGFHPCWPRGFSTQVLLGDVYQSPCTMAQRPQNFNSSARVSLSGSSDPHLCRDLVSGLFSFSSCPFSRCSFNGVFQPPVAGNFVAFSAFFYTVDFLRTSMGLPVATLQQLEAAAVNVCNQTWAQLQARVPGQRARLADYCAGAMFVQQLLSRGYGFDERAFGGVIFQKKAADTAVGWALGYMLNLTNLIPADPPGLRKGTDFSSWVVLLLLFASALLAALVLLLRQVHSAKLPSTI

Row | Structure (SMILES) | inhibition at 1000 µM (human NTPDase3) | Ki (human NTPDase3) | inhibition at 100 µM (rP2Y6) | Ki (human NTPDase1) | Ki (human NTPDase8; human NTPDase8, CE method, ATP 320 μM, Km 46 μM) | inhibition at 10 µM (hP2Y12) | Ki (human NTPDase2) | inhibition at 1000 µM (human NTPDase8; human NTPDase8, ATP 320 μM) | Ki (human NTPDase8) | inhibition at 1000 µM (human NTPDase1)
1 | CCOP(=O)(Cc1ccc(NC(=O)CCCNC(=O)[C@H]2O[C@@H](n3ccc(=O)[nH]c3=O)C(O)C2O)cc1)OCC (stereo in doubt) [Compound 4, 4-[4-((2S,3R,4S,5R)-5-(2,4-Dioxo-3,4-dihydropyrimidin-1(2H)-yl)-3,4-dihydroxy-tetrahydrofurane-2-carboxamido)butaneamido]benzylphosphonic acid diethylester] | 48% | > 200 µM | -8 ± 11% | 182 ± 24.3 µM | 242 ± 39.3 µM | 6 ± 4% | 210 ± 25.3 µM | – | – | –
2 | CCOP(=O)(CNC(=O)CNC(=O)[C@H]1O[C@@H](n2ccc(=O)[nH]c2=O)C(O)C1O)OCC (stereo in doubt) [Compound 5, 2-[(2S,3R,4S,5R)-5-(2,4-Dioxo-3,4-dihydropyrimidin-1(2H)-yl)-3,4-dihydroxy-tetrahydrofurane-2-carboxamido]ethaneamidomethylphosphonic acid diethylester] | 0% | > 200 µM | 17 ± 16% | 786 ± 33 µM | – | 31 ± 1% | 71.7 ± 13.5 µM | 0% | > 100 µM | –
3 | CCOP(=O)(CNC(=O)CCCNC(=O)[C@H]1O[C@@H](n2ccc(=O)[nH]c2=O)C(O)C1O)OCC (stereo in doubt) [Compound 7, 4-[(2S,3R,4S,5R)-5-(2,4-Dioxo-3,4-dihydropyrimidin-1(2H)-yl)-3,4-dihydroxy-tetrahydrofurane-2-carboxamido]butaneamidomethylphosphonic acid diethylester] | 0% | > 200 µM | -3 ± 11% | > 50 µM | – | 2 ± 8% | 29.2 ± 2.7 µM | 0% | > 100 µM | 45%
4 | CCOP(=O)(CCNC(=O)CNC(=O)[C@H]1O[C@@H](n2ccc(=O)[nH]c2=O)C(O)C1O)OCC (stereo in doubt) [Compound 8, 2-[2-((2S,3R,4S,5R)-5-(2,4-Dioxo-3,4-dihydropyrimidin-1(2H)-yl)-3,4-dihydroxy-tetrahydrofurane-2-carboxamido)ethaneamido]ethylphosphonic acid diethylester] | 22% | > 200 µM | 9 ± 13% | > 50 µM | – | 2 ± 3% | 116 ± 24 µM | 0% | > 100 µM | 0%
5 | CCOP(=O)(CNC(=O)CCNC(=O)[C@H]1O[C@@H](n2ccc(=O)[nH]c2=O)[C@H](O)[C@@H]1O)OCC [Compound 6, 3-[(2S,3R,4S,5R)-5-(2,4-Dioxo-3,4-dihydropyrimidin-1(2H)-yl)-3,4-dihydroxy-tetrahydrofurane-2-carboxamido]pronaneamidomethylphosphonic acid diethylester] | 0% | > 200 µM | -3 ± 2% | > 50 µM | – | 7 ± 5% | 167 ± 21 µM | 0% | > 100 µM | 0%
